# Literature values as cited in paper PMC10623564, “Ruthenium-Based Photoactivated Chemotherapy” (Journal of the American Chemical Society, 2023).
# Where two headings read alike, the source gives them in different places. Marks after values point to notes of the source that are not given here.
# Legend:
# [1] = for φPS, mtep photosubstitution: in acetonitrile (521 nm printed for 23^+); for φPS, photosubstitution of one axial MeCN by chloride: 298 K, in CH2Cl2
# [2] = for φΔ, singlet oxygen (1O2) generation quantum yield: in CD3OD solution
# [3] = not given; remark: listed apart in the source
# [4] = test system: CRMM1 conjunctival melanoma cancer cell line; design: method as in PMID 35774173; settings: CRMM1 cells, green light
# [5] = test system: PC3Pro4 prostate cancer cell lines; design: method as in PMID 35774173; settings: PC3Pro4 cells, green light
# [6] = test system: PC3Pro4 ectopic prostate zebrafish tumor model; design: method as in PMID 35774173; settings: compound in water or intravenous injection, green light
# [7] = test system: CRMM2 conjunctival melanoma cancer cell line; design: method as in PMID 35774173; settings: CRMM2 cells, green light
# [8] = test system: orthotopic CRMM1 eye tumor model; design: method as in PMID 35774173
# [9] = test system: CYP3A4; design: method as in PMID 34110801; settings: Figure 8c, read-out: IC50, CYP3A4 protein activity
# [10] = test system: NAMPT; design: method as in PMID 28666065
# [11] = test system: A431 skin cancer cells; design: method as in PMID 28666065
# [12] = conditions not given
# [13] = test system: cancer cells; design: method as in PMID 30155140; settings: photosubstitution of the axial dmso ligand
# [14] = λexc 450 nm, in water, room temperature
# [15] = λexc 521 nm, in acetonitrile, room temperature
# [16] = λexc 450 nm, in acetonitrile, room temperature
# [17] = λexc not given, in water, room temperature
compound,measurement,setting,value
"CC#N.CC(=O)C=C(C)[O][Ru+].c1ccc(-c2cccc(-c3ccccn3)n2)nc1 [1^+, [Ru(tpy)(acac)(MeCN)]^+]","φPS, quantum yield for photosubstitution",[1]; [14],0.014 (450) ^j
same,toxicity in the dark,dark,quite toxic in the dark
"Cc1cccc(-c2cccc(C)n2)n1.[Ru+2].c1ccc(-c2ccccn2)nc1.c1ccc(-c2ccccn2)nc1 [2^2+, [Ru(bpy)2(dmbpy)]^2+]","φPS, quantum yield for photosubstitution","[1]; λexc 413 nm, in acetonitrile, room temperature",0.05 (413) ^f
"Oc1cccc(-c2cccc(O)n2)n1.[Ru+2].c1ccc(-c2ccccn2)nc1.c1ccc(-c2ccccn2)nc1 [3^2+, [Ru(bpy)2(6,6′-dOHbpy)]^2+]","φΔ, singlet oxygen (1O2) generation quantum yield",[2]; Table 1 row with φPS at pH 5.0,0.041 ^i
same,"φΔ, singlet oxygen (1O2) generation quantum yield",[2]; Table 1 row with φPS at pH 7.5,0.18 ^i
same,λmax^MLCT,[3]; Table 1 row with φPS in aqueous solution at pH 5.0,462 nm
same,λmax^MLCT,[3]; Table 1 row with φPS in aqueous solution at pH 7.5,493 nm
same,"φPS, quantum yield for photosubstitution","[1]; λexc 450 nm, in aqueous solution at pH 5.0",0.0058 (450) ^g
same,"φPS, quantum yield for photosubstitution","[1]; λexc 450 nm, in aqueous solution at pH 7.5",0.0012 (450) ^h
"CSCc1ccccn1.[Ru+2].c1ccc(-c2ccccn2)nc1.c1ccc(-c2ccnc3c2ccc2c(-c4ccccc4)ccnc23)cc1 [5^2+, [Ru(dpp)(bpy)(mtmp)]^2+]",photosubstitution quantum yield,[1]; in deaerated acetonitrile,0.11
same,"φPS, quantum yield for photosubstitution",[1]; [15],0.111 (521) ^f
same,PI value (photoindex),[4],8.5
same,PI value (photoindex),[5],> 31
same,antitumor activity in vivo,[6],no antitumor activity
same,PI value (photoindex),[7],8.8
same,activation in vivo,"[8]; four consecutive PACT treatments of 90 min irradiation (114 J/cm^2) each, 520 nm",clear activation
same,antitumor activity in vivo,"[8]; orthotopic eye tumor model, retro-orbital injection, green light (520 nm, 114 J/cm^2)",good antitumor activity
"N.N.[Ru+2].c1ccc(-c2ccccn2)nc1.c1ccc(-c2ccccn2)nc1 [8^2+, [Ru(bpy)2(NH3)2]^2+]","φPS, quantum yield for photosubstitution","[1]; λexc 350 nm, in water, room temperature",0.024 (350) ^j
"CC(C)(C)OC(=O)N[C@H](CSCCC(=O)NCc1cccnc1)Cc1ccccc1.Cc1cccc(-c2cccc(C)n2)n1.[Ru+2].c1ccc(-c2cccc(-c3ccccn3)n2)nc1 [11^2+, [Ru(tpy)(dmbpy)(R-py)]^2+]","φPS, quantum yield for photosubstitution","[1]; λexc 500 nm, in acetonitrile, room temperature",0.31 (500) ^f
same,"φPS, quantum yield for photosubstitution","[1]; λexc 500 nm, in water, room temperature",0.15 (500) ^j
same,IC50,[9]; after light activation,2200 nM
same,IC50,[9]; in the dark,900 nM
"CC(C)(C)c1ccc(S(=O)(=O)NCc2ccc(C(=O)Nc3cccnc3)cc2)cc1.[Ru+2].c1ccc(-c2cccc(-c3ccccn3)n2)nc1.c1ccc2nc(-c3ccc4ccccc4n3)ccc2c1 [12^2+, [Ru(tpy)(biq)(STF31)]^2+]",loss of potency on caging relative to STF31,"[10]; NAMPT, dark",18 times
same,IC50,"[10]; caged compound in the dark, read-out: IC50,dark, NAMPT inhibition",4800 nM
same,λmax (absorption maximum),[3]; Figure 6 bottom,531 nm
same,"εexc, molar absorption coefficient at the excitation wavelength",[3]; λexc = 625 nm (red light),379 M^–1·cm^–1
same,"φPS, quantum yield for photosubstitution","[1]; λexc 625 nm, in water, room temperature",0.013 (625) ^j
same,PI value (photoindex),"[11]; A431 cells, normoxia (21% O2)",3.3
same,EC50,"[11]; A431 skin cancer cells, normoxia, dark",23.6 µM
same,PI value (photoindex),[11]; hypoxic A431 cells (1% O2),3.6
"CC#N.CC#N.[Ru+2].c1ccc(-c2ccccn2)nc1.c1ccc2cc3nc4c5cccnc5c5ncccc5c4nc3cc2c1 [17^2+, [Ru(bpy)(dppn)(MeCN)2]^2+]","φPS, quantum yield for photosubstitution","[1]; λexc 400 nm, in water, room temperature",0.002 (400) ^j
"CSCCc1ccccn1.[Ru+][c]1ccccc1-c1ccccn1.c1ccc(-c2ccccn2)nc1 [23^+, [Ru(bpy)(phpy)(mtep)]^+]","φPS, mtep photosubstitution",[1],0.00035
same,"φPS, quantum yield for photosubstitution",[1]; [15],0.00035 (521) ^f
"CC(C)(C)c1ccc(S(=O)(=O)NCc2ccc(C(=O)Nc3cccnc3)cc2)cc1 [STF31, reference compound]",IC50,"[10]; uncaged inhibitor, read-out: IC50, NAMPT inhibition",250 nM
"CC#N.CC#N.[Ru+2].c1ccc(-c2ccccn2)nc1.c1ccc(-c2ccccn2)nc1 [[Ru(bpy)2(MeCN)2]^2+, reference compound]","φPS, quantum yield for photosubstitution",[1]; [14],0.22 (450) ^j
same,"φPS, quantum yield for photosubstitution","[1]; λexc printed as 40098 nm, in water, room temperature",0.21 (40098) ^j
"CSCCc1ccccn1.[Ru+2].c1ccc(-c2ccccn2)nc1.c1ccc(-c2ccccn2)nc1 [[Ru(bpy)2(mtep)]^2+, reference compound]","φPS, mtep photosubstitution",[1],0.0030
"[Ru+2].c1ccc(-c2ccccn2)nc1.c1ccc(-c2ccccn2)nc1.c1ccc(-c2ccccn2)nc1 [[Ru(bpy)3]^2+, reference compound]",φΔ (generator of 1O2),[2]; conditions not given,≈ 0.73
same,"φPS, quantum yield for photosubstitution","[1]; λexc 436 nm, at 363 K in 0.1 M aqueous HCl",0.00053 (436) ^e
same,"φPS, quantum yield for photosubstitution",[1]; [16],0 (450) ^f
same,φP (phosphorescence),[12],≈ 0.02
"CC#N.CC#N.CC#N.[Ru+2].c1ccc(-c2cccc(-c3ccccn3)n2)nc1 [[Ru(tpy)(MeCN)3]^2+, reference compound]","φPS, photosubstitution of one axial MeCN by chloride",[1]; 436 nm,0.040
same,"φPS, photosubstitution of one axial MeCN by chloride",[1]; 480 nm,0.041
"CSCCO.[Ru+2].c1ccc(-c2cccc(-c3ccccn3)n2)nc1.c1ccc(-c2ccccn2)nc1 [[Ru(tpy)(bpy)(Hmte)]^2+, reference compound]","φPS, quantum yield for photosubstitution","[1]; λexc 452 nm, in water, room temperature",0.022 (452) ^j
"O.[Ru+2].c1ccc(-c2cccc(-c3ccccn3)n2)nc1.c1ccc(-c2ccccn2)nc1 [[Ru(tpy)(bpy)(OH2)]^2+, reference compound]",toxicity of the complex by itself,,poorly toxic
"CS(C)=O.[Ru+2].c1ccc(-c2cccc(-c3ccccn3)n2)nc1.c1ccc(-c2ccccn2)nc1 [[Ru(tpy)(bpy)(dmso)]^2+, reference compound]",quantum yield of photosubstitution of dmso by acetonitrile,[1]; at 450 nm,0.016
same,"φPS, quantum yield for photosubstitution",[1]; [16],0.016 (450) ^f
"Cc1cccc(-c2cccc(C)n2)n1.[Cl-].[Cl][Ru+].c1ccc(-c2cccc(-c3ccccn3)n2)nc1 [[Ru(try)(dmbpy)Cl]Cl, [Ru(tpy)(dmbpy)Cl]Cl, reference compound]",IC50,[9],50000 nM
"CP(C)C.[Ru+2].c1c[nH]cn1.c1ccc(-c2ccccn2)nc1.c1ccc(-c2ccccn2)nc1 [cis-9^2+, cis-[Ru(bpy)2(PMe3)(ImH)]^2+]",absorption maximum,[3],432 nm
same,"φPS, quantum yield for photosubstitution",[1]; [17],0.10 ^j
CC(C)(C)OC(=O)N[C@H](CSCCC(=O)NCc1cccnc1)Cc1ccccc1 [compound 24],IC50,[9],1500 nM
"CP(C)C.[Ru+2].c1c[nH]cn1.c1ccc(-c2ccccn2)nc1.c1ccc(-c2ccccn2)nc1 [trans-9^2+, trans-[Ru(bpy)2(PMe3)(ImH)]^2+]",absorption maximum,[3],464 nm
same,"φPS, quantum yield for photosubstitution",[1]; [17],0.23 ^j
[Ru(bapbpy)(dmso)(OH2)]^+ [10^2+],"φPS, quantum yield for photosubstitution",[1]; [14],0.003 (450) ^j
same,effect of light irradiation performed in cancer cells,[13],led to cell death
